Experimental data: patent publication US9856220B2 (AbbVie Deutschland GmbH & Co. KG, priority 2011, dated 2018)
Where a name gives a salt, the structure may show the parent alone.

What follows are molecules tested against PDE10A (Homo sapiens (Human), UniProt Q9Y233) (assay: Measurement of PDE activity (recombinant PDE, cAMP HTRF)). Conditions: 20 nM cyclic nucleotide substrate, 60 minutes at 29 C.
Chain of PDE10A (Q9Y233 whole entry, species assumed): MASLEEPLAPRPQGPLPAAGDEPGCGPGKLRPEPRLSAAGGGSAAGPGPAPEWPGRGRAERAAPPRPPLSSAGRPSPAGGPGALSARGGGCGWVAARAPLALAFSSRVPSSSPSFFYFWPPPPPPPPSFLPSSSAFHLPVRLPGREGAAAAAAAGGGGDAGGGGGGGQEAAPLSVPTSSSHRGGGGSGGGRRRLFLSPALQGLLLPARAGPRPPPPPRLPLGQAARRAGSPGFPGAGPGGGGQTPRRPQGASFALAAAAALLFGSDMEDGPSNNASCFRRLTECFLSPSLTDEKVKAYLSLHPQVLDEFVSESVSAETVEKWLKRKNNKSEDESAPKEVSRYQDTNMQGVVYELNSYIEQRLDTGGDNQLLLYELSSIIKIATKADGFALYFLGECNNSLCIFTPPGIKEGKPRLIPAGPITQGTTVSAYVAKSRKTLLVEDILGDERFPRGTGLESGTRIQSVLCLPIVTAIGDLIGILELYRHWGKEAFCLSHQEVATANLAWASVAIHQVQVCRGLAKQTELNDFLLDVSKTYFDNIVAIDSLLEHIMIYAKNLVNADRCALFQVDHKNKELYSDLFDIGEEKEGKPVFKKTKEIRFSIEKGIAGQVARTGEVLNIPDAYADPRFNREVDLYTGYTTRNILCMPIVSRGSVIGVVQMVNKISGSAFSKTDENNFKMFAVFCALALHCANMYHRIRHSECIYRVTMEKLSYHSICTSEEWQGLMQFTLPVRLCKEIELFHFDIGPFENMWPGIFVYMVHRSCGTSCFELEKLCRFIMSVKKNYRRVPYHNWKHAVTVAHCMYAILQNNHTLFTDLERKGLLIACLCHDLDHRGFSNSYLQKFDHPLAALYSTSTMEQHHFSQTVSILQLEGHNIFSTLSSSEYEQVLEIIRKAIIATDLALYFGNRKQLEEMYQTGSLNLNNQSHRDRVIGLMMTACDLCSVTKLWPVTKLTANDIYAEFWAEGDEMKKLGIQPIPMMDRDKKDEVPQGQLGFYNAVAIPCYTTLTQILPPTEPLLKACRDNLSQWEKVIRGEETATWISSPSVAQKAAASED
Format: biochemical
Procedure: a) Measurement of PDE Activity
The recombinant PDE proteins are used in in vitro enzymatic reaction for measurement of PDE activity. These recombinant proteins, including PDE10A (human, rat and mouse PDE10) and isoforms of PDEs 1, 3, 4, and 5, were purchased from commercial vendor BPS Bioscience. The enzymatic activity of PDEs was determined by cAMP measurement kit from CisBio (IBA) using HTRF technology.
The PDE enzymatic reaction was carried out in assay buffer (20 mM Tris-HCl pH7.5, 10 mM MgCl2, 0.1% bovine serum albumin) containing enzyme and substrate. […] The substrate cyclic nucleotide (cAMP or cGMP) concentration used in the assay was 20 nM for PDE10, and 100 nM for other PDEs. The inhibitory effect of compound was determined by incubating various concentration of inhibitor in the enzymatic assay. […] Next, the compound at varying concentration was mixed with PDE enzyme. The reaction was initiated by addition of cyclic nucleotide substrate, and incubated for 60 minutes at 29 C. The reaction was stopped by addition of lysis buffer from assay kit. The cAMP-d2 and anti-cAMP cryptate in the lysis buffer detected the level of cAMP left from the PDE hydrolysis reaction. […] Thus, IC50 value of inhibitor can be obtained by plotting inhibitor concentration against PDE activity at that concentration.
CCn1cc(C(=O)NC2CCc3c(C)cccc32)c2cc(OC)c(OC)cc2c1=O (centres unmarked) [Example 174, 2-Ethyl-6,7-dimethoxy-N-(4-methyl-2,3-dihydro-1H-inden-1-yl)-1-oxo-1,2-dihydroisoquinoline-4-carboxamide] showed an IC50 of 200 to 500 nM. CCn1cc(C(=O)NC2CCc3cc(C)ccc32)c2cc(OC)c(OC)cc2c1=O (centres unmarked) [Example 175, 2-Ethyl-6,7-dimethoxy-N-(5-methyl-2,3-dihydro-1H-inden-1-yl)-1-oxo-1,2-dihydroisoquinoline-4-carboxamide] was tested, and the IC50 was 200 to 500 nM. For CCn1cc(C(=O)NC2CCc3ccc(OC)cc32)c2cc(OC)c(OC)cc2c1=O (centres unmarked) [Example 176, 2-Ethyl-6,7-dimethoxy-N-(6-methoxy-2,3-dihydro-1H-inden-1-yl)-1-oxo-1,2-dihydroisoquinoline-4-carboxamide], the IC50 was 200 to 500 nM. With CCn1cc(C(=O)NC2CCc3cc(F)ccc32)c2cc(OC)c(OC)cc2c1=O (centres unmarked) [Example 177, 2-Ethyl-N-(5-fluoro-2,3-dihydro-1H-inden-1-yl)-6,7-dimethoxy-1-oxo-1,2-dihydroisoquinoline-4-carboxamide] the IC50 was 200 to 500 nM. With CCCCNC(=O)c1cn(CCc2ccc3ccccc3n2)c(=O)c2cc(OC)ccc12 [Example 182, 7-Methoxy-1-oxo-2-(2-quinolin-2-yl-ethyl)-1,2-dihydro-isoquinoline-4-carboxylic acid butylamide] the IC50 was 100 to 200 nM. With CCC(CC)n1cc(C(=O)NCc2ccccc2CN(C)C)c2cc(OC)c(OC)cc2c1=O [Example 187, 2-(1-Ethyl-propyl)-6,7-dimethoxy-1-oxo-1,2-dihydro-isoquinoline-4-carboxylic acid 2-dimethylaminomethyl-benzylamide hydrochloride] the IC50 was 200 to 500 nM. Molecule CCC(CC)n1cc(C(=O)NCc2cc(F)cc(F)c2)c2cc(OC)c(OC)cc2c1=O [Example 188, 2-(1-Ethyl-propyl)-6,7-dimethoxy-1-oxo-1,2-dihydro-isoquinoline-4-carboxylic acid 3,5-difluoro-benzylamide] has an IC50 of 100 to 200 nM. CCC(CC)n1cc(C(=O)NCc2ccc(F)c(F)c2)c2cc(OC)c(OC)cc2c1=O [Example 189, 2-(1-Ethyl-propyl)-6,7-dimethoxy-1-oxo-1,2-dihydro-isoquinoline-4-carboxylic acid 3,4-difluoro-benzylamide] gave an IC50 of 100 to 200 nM. Work on CCC(CC)n1cc(C(=O)N[C@@H]2CCc3ccccc32)c2cc(OC)c(OC)cc2c1=O [Example 191, 2-(1-Ethyl-propyl)-6,7-dimethoxy-1-oxo-1,2-dihydro-isoquinoline-4-carboxylic acid (R)-indan-1-ylamide] yielded an IC50 of 200 to 500 nM. CCC(CC)n1cc(C(=O)NC2CCc3sccc32)c2cc(OC)c(OC)cc2c1=O (centres unmarked) [Example 193, 2-(1-Ethyl-propyl)-6,7-dimethoxy-1-oxo-1,2-dihydro-isoquinoline-4-carboxylic acid (5,6-dihydro-4H-cyclopenta[b]thiophen-4-yl)-amide] was tested, and the IC50 was under 100 nM. Molecule CCC(CC)n1cc(C(=O)NC2COc3ccccc32)c2cc(OC)c(OC)cc2c1=O (centres unmarked) [Example 194, 2-(1-Ethyl-propyl)-6,7-dimethoxy-1-oxo-1,2-dihydro-isoquinoline-4-carboxylic acid (2,3-dihydro-benzofuran-3-yl)-amide] has an IC50 of under 100 nM. Work on CCC(CC)n1cc(C(=O)NC2CSc3ccccc32)c2cc(OC)c(OC)cc2c1=O (centres unmarked) [Example 216, 2-(1-Ethyl-propyl)-6,7-dimethoxy-1-oxo-1,2-dihydro-isoquinoline-4-carboxylic acid (2,3-dihydro-benzo[b]thiophen-3-yl)-amide] yielded an IC50 of under 100 nM. CCn1cc(C(=O)NC2CCc3sccc32)c2cnc(OC)cc2c1=O (centres unmarked) [Example 230, 2-Ethyl-7-methoxy-1-oxo-1,2-dihydro-[2,6]naphthyridine-4-carboxylic acid (5,6-dihydro-4H-cyclopenta[b]thiophen-4-yl)-amide] gave an IC50 of 100 to 200 nM. CCC(CC)n1nc(C(=O)NC2CCc3ncccc32)c2cc(OC)c(OC)cc2c1=O (centres unmarked) [Example 233, 3-(1-Ethyl-propyl)-6,7-dimethoxy-4-oxo-3,4-dihydro-phthalazine-1-carboxylic acid (6,7-dihydro-5H-[1]pyrindin-5-yl)-amide] was tested, and the IC50 was 100 to 200 nM. For CCC(CC)n1cc(C(=O)NCc2ccc(C)s2)c2cc(OC)c(OC)cc2c1=O [Example 237, 6,7-Dimethoxy-N-((5-methylthiophen-2-yl)methyl)-1-oxo-2-(pentan-3-yl)-1,2-dihydroisoquinoline-4-carboxamide], the IC50 was 100 to 200 nM. CCC(CC)n1cc(C(=O)NCc2cc(C)sc2C)c2cc(OC)c(OC)cc2c1=O [Example 242, N-((2,5-dimethylthiophen-3-yl)methyl)-6,7-dimethoxy-1-oxo-2-(pentan-3-yl)-1,2-dihydroisoquinoline-4-carboxamide] gave an IC50 of 200 to 500 nM. In the case of CCC(CC)n1cc(C(=O)NCc2scnc2C)c2cc(OC)c(OC)cc2c1=O [Example 249, 6,7-Dimethoxy-N-((4-methylthiazol-5-yl)methyl)-1-oxo-2-(pentan-3-yl)-1,2-dihydroisoquinoline-4-carboxamide], the IC50 is reported as 200 to 500 nM. CCC(CC)n1cc(C(=O)NC2CCc3cc(F)ccc32)c2cc(OC)c(OC)cc2c1=O (centres unmarked) [Example 252, N-(5-Fluoro-2,3-dihydro-1H-inden-1-yl)-6,7-dimethoxy-1-oxo-2-(pentan-3-yl)-1,2-dihydroisoquinoline-4-carboxamide] showed an IC50 of 100 to 200 nM. CCC(CC)n1cc(C(=O)NC2CCc3cc(C)ccc32)c2cc(OC)c(OC)cc2c1=O (centres unmarked) [Example 253, 6,7-Dimethoxy-N-(5-methyl-2,3-dihydro-1H-inden-1-yl)-1-oxo-2-(pentan-3-yl)-1,2-dihydroisoquinoline-4-carboxamide] gave an IC50 of under 100 nM. Work on CCC(CC)n1cc(C(=O)NC2CCc3c(C)cccc32)c2cc(OC)c(OC)cc2c1=O (centres unmarked) [Example 254, 6,7-Dimethoxy-N-(4-methyl-2,3-dihydro-1H-inden-1-yl)-1-oxo-2-(pentan-3-yl)-1,2-dihydroisoquinoline-4-carboxamide] yielded an IC50 of under 100 nM. In the case of CCc1nc(CNC(=O)c2cn(C(CC)CC)c(=O)c3cc(OC)c(OC)cc23)cs1 [Example 255, N-((2-Ethylthiazol-4-yl)methyl)-6,7-dimethoxy-1-oxo-2-(pentan-3-yl)-1,2-dihydroisoquinoline-4-carboxamide], the IC50 is reported as 200 to 500 nM. In the case of CCC(CC)n1cc(C(=O)NCc2cc(C)cs2)c2cc(OC)c(OC)cc2c1=O [Example 257, 6,7-Dimethoxy-N-((4-methylthiophen-2-yl)methyl)-1-oxo-2-(pentan-3-yl)-1,2-dihydroisoquinoline-4-carboxamide], the IC50 is reported as 100 to 200 nM. Work on CCC(CC)n1cc(C(=O)NCc2sccc2C)c2cc(OC)c(OC)cc2c1=O [Example 258, 6,7-Dimethoxy-N-((3-methylthiophen-2-yl)methyl)-1-oxo-2-(pentan-3-yl)-1,2-dihydroisoquinoline-4-carboxamide] yielded an IC50 of 100 to 200 nM. With CCC(CC)n1cc(C(=O)NCc2ncc(C)o2)c2cc(OC)c(OC)cc2c1=O [Example 259, 6,7-Dimethoxy-N-((5-methyloxazol-2-yl)methyl)-1-oxo-2-(pentan-3-yl)-1,2-dihydroisoquinoline-4-carboxamide] the IC50 was 200 to 500 nM. Molecule CCC(CC)n1cc(C(=O)NC2CCc3ccc(C)cc32)c2cc(OC)c(OC)cc2c1=O (centres unmarked) [Example 260, 6,7-Dimethoxy-N-(6-methyl-2,3-dihydro-1H-inden-1-yl)-1-oxo-2-(pentan-3-yl)-1,2-dihydroisoquinoline-4-carboxamide] has an IC50 of 100 to 200 nM. In the case of CCC(CC)n1cc(C(=O)NCc2ccncc2)c2cc(OC)c(OC)cc2c1=O [Example 261, 6,7-Dimethoxy-1-oxo-2-(pentan-3-yl)-N-(pyridin-4-ylmethyl)-1,2-dihydroisoquinoline-4-carboxamide], the IC50 is reported as 200 to 500 nM. For CCC(CC)n1cc(C(=O)NCc2ccc(C)cc2)c2cc(OC)c(OC)cc2c1=O [Example 262, 6,7-Dimethoxy-N-(4-methylbenzyl)-1-oxo-2-(pentan-3-yl)-1,2-dihydroisoquinoline-4-carboxamide], the IC50 was 100 to 200 nM. CCC(CC)n1cc(C(=O)NCc2ccc(C#N)o2)c2cc(OC)c(OC)cc2c1=O [Example 264, N-((5-Cyanofuran-2-yl)methyl)-6,7-dimethoxy-1-oxo-2-(pentan-3-yl)-1,2-dihydroisoquinoline-4-carboxamide] gave an IC50 of 200 to 500 nM. Molecule CCC(CC)n1cc(C(=O)NC2CCc3c(Cl)cccc32)c2cc(OC)c(OC)cc2c1=O (centres unmarked) [Example 265, N-(4-Chloro-2,3-dihydro-1H-inden-1-yl)-6,7-dimethoxy-1-oxo-2-(pentan-3-yl)-1,2-dihydroisoquinoline-4-carboxamide] has an IC50 of 200 to 500 nM. Molecule CCc1ccc(CNC(=O)c2cn(C(CC)CC)c(=O)c3cc(OC)c(OC)cc23)s1 [Example 266, N-((5-Ethylthiophen-2-yl)methyl)-6,7-dimethoxy-1-oxo-2-(pentan-3-yl)-1,2-dihydroisoquinoline-4-carboxamide] has an IC50 of 200 to 500 nM. In the case of CCC(CC)n1cc(C(=O)NCc2ccoc2C)c2cc(OC)c(OC)cc2c1=O [Example 268, 6,7-Dimethoxy-N-((2-methylfuran-3-yl)methyl)-1-oxo-2-(pentan-3-yl)-1,2-dihydroisoquinoline-4-carboxamide], the IC50 is reported as 200 to 500 nM. CCC(CC)n1cc(C(=O)NCc2ccn(C)n2)c2cc(OC)c(OC)cc2c1=O [Example 269, 6,7-Dimethoxy-N-((1-methyl-1H-pyrazol-3-yl)methyl)-1-oxo-2-(pentan-3-yl)-1,2-dihydroisoquinoline-4-carboxamide] showed an IC50 of 200 to 500 nM.
